Assay: radiation dosimetry estimates for human patients
Settings: adult male

Q: Which results are given for OCC1OC(SC2OC(CO)C(O)C(n3cc(-c4cccc([18F])c4)nn3)C2O)C(O)C(n2cc(-c3cccc(F)c3)nn2)C1O [[^18F]FPTDG, 3-(3-[^18F]fluorophenyltriazolyl)-3-deoxy-3′-(3-fluorophenyltriazolyl)-3′-deoxy-1-thio-β-D-digalactopyranoside]?
A: Effective Dose: Effective Dose 6.74 mSv per 370 MBq dose or 10 mCi; Effective Dose Equivalent: Effective Dose Equivalent 6.12 mSv per 370 MBq dose or 10 mCi; Estimated organ dose, Alpha (Total Body): 0 mSv per 370 MBq dose or 10 mCi; Estimated organ dose, Beta (Total Body): 1.79 mSv per 370 MBq dose or 10 mCi; Estimated organ dose, ED Cont. (Total Body): 0.00 mSv per 370 MBq dose or 10 mCi; Estimated organ dose, EDE Cont. (Total Body): 0.00 mSv per 370 MBq dose or 10 mCi; Estimated organ dose, Photon (Total Body): 2.67 mSv per 370 MBq dose or 10 mCi; Estimated organ dose, Total (Total Body): 4.46 mSv per 370 MBq dose or 10 mCi; Estimated organ dose, Alpha (target organ Adrenals): 0 mSv per 370 MBq dose or 10 mCi; Estimated organ dose, Beta (target organ Adrenals): 1.70 mSv per 370 MBq dose or 10 mCi; Estimated organ dose, ED Cont. (target organ Adrenals): 0.03 mSv per 370 MBq dose or 10 mCi; Estimated organ dose, EDE Cont. (target organ Adrenals): 0.00 mSv per 370 MBq dose or 10 mCi; Estimated organ dose, Photon (target organ Adrenals): 3.33 mSv per 370 MBq dose or 10 mCi; Estimated organ dose, Total (target organ Adrenals): 5.03 mSv per 370 MBq dose or 10 mCi; Estimated organ dose, Alpha (target organ Brain): 0 mSv per 370 MBq dose or 10 mCi; Estimated organ dose, Beta (target organ Brain): 1.70 mSv per 370 MBq dose or 10 mCi; Estimated organ dose, ED Cont. (target organ Brain): 0.02 mSv per 370 MBq dose or 10 mCi; Estimated organ dose, EDE Cont. (target organ Brain): 0.00 mSv per 370 MBq dose or 10 mCi; Estimated organ dose, Photon (target organ Brain): 2.22 mSv per 370 MBq dose or 10 mCi; Estimated organ dose, Total (target organ Brain): 3.92 mSv per 370 MBq dose or 10 mCi; Estimated organ dose, Alpha (target organ Breasts): 0 mSv per 370 MBq dose or 10 mCi; Estimated organ dose, Beta (target organ Breasts): 1.70 mSv per 370 MBq dose or 10 mCi; Estimated organ dose, ED Cont. (target organ Breasts): 0.18 mSv per 370 MBq dose or 10 mCi; Estimated organ dose, EDE Cont. (target organ Breasts): 0.54 mSv per 370 MBq dose or 10 mCi; Estimated organ dose, Photon (target organ Breasts): 1.87 mSv per 370 MBq dose or 10 mCi; Estimated organ dose, Total (target organ Breasts): 3.57 mSv per 370 MBq dose or 10 mCi; Estimated organ dose, Alpha (target organ Gallbladder Wall): 0 mSv per 370 MBq dose or 10 mCi; Estimated organ dose, Beta (target organ Gallbladder Wall): 1.70 mSv per 370 MBq dose or 10 mCi; Estimated organ dose, ED Cont. (target organ Gallbladder Wall): 0.00 mSv per 370 MBq dose or 10 mCi; Estimated organ dose, EDE Cont. (target organ Gallbladder Wall): 0.00 mSv per 370 MBq dose or 10 mCi; Estimated organ dose, Photon (target organ Gallbladder Wall): 3.7 mSv per 370 MBq dose or 10 mCi; Estimated organ dose, Total (target organ Gallbladder Wall): 5.40 mSv per 370 MBq dose or 10 mCi; Estimated organ dose, Alpha (target organ Heart Wall): 0 mSv per 370 MBq dose or 10 mCi; Estimated organ dose, Beta (target organ Heart Wall): 1.72 mSv per 370 MBq dose or 10 mCi; Estimated organ dose, ED Cont. (target organ Heart Wall): 0.00 mSv per 370 MBq dose or 10 mCi; Estimated organ dose, EDE Cont. (target organ Heart Wall): 0.00 mSv per 370 MBq dose or 10 mCi; Estimated organ dose, Photon (target organ Heart Wall): 2.76 mSv per 370 MBq dose or 10 mCi; Estimated organ dose, Total (target organ Heart Wall): 4.48 mSv per 370 MBq dose or 10 mCi; Estimated organ dose, Alpha (target organ Kidneys): 0 mSv per 370 MBq dose or 10 mCi; Estimated organ dose, Beta (target organ Kidneys): 1.70 mSv per 370 MBq dose or 10 mCi; Estimated organ dose, ED Cont. (target organ Kidneys): 0.02 mSv per 370 MBq dose or 10 mCi; Estimated organ dose, EDE Cont. (target organ Kidneys): 0.00 mSv per 370 MBq dose or 10 mCi; Estimated organ dose, Photon (target organ Kidneys): 3.24 mSv per 370 MBq dose or 10 mCi; Estimated organ dose, Total (target organ Kidneys): 4.94 mSv per 370 MBq dose or 10 mCi; Estimated organ dose, Alpha (target organ LLI Wall): 0 mSv per 370 MBq dose or 10 mCi; Estimated organ dose, Beta (target organ LLI Wall): 9.25 mSv per 370 MBq dose or 10 mCi; Estimated organ dose, ED Cont. (target organ LLI Wall): 1.72 mSv per 370 MBq dose or 10 mCi; Estimated organ dose, EDE Cont. (target organ LLI Wall): 0.86 mSv per 370 MBq dose or 10 mCi; Estimated organ dose, Photon (target organ LLI Wall): 5.06 mSv per 370 MBq dose or 10 mCi; Estimated organ dose, Total (target organ LLI Wall): 14.30 mSv per 370 MBq dose or 10 mCi; Estimated organ dose, Alpha (target organ Liver): 0 mSv per 370 MBq dose or 10 mCi; Estimated organ dose, Beta (target organ Liver): 1.30 mSv per 370 MBq dose or 10 mCi; Estimated organ dose, ED Cont. (target organ Liver): 0.20 mSv per 370 MBq dose or 10 mCi; Estimated organ dose, EDE Cont. (target organ Liver): 0.00 mSv per 370 MBq dose or 10 mCi; Estimated organ dose, Photon (target organ Liver): 2.79 mSv per 370 MBq dose or 10 mCi; Estimated organ dose, Total (target organ Liver): 4.08 mSv per 370 MBq dose or 10 mCi; Estimated organ dose, Alpha (target organ Lungs): 0 mSv per 370 MBq dose or 10 mCi; Estimated organ dose, Beta (target organ Lungs): 0.03 mSv per 370 MBq dose or 10 mCi; Estimated organ dose, ED Cont. (target organ Lungs): 0.28 mSv per 370 MBq dose or 10 mCi; Estimated organ dose, EDE Cont. (target organ Lungs): 0.28 mSv per 370 MBq dose or 10 mCi; Estimated organ dose, Photon (target organ Lungs): 2.26 mSv per 370 MBq dose or 10 mCi; Estimated organ dose, Total (target organ Lungs): 2.29 mSv per 370 MBq dose or 10 mCi; Estimated organ dose, Alpha (target organ Muscle): 0 mSv per 370 MBq dose or 10 mCi; Estimated organ dose, Beta (target organ Muscle): 1.70 mSv per 370 MBq dose or 10 mCi; Estimated organ dose, ED Cont. (target organ Muscle): 0.02 mSv per 370 MBq dose or 10 mCi; Estimated organ dose, EDE Cont. (target organ Muscle): 0.00 mSv per 370 MBq dose or 10 mCi; Estimated organ dose, Photon (target organ Muscle): 2.68 mSv per 370 MBq dose or 10 mCi; Estimated organ dose, Total (target organ Muscle): 4.38 mSv per 370 MBq dose or 10 mCi; Estimated organ dose, Alpha (target organ Osteogenic Cells): 0 mSv per 370 MBq dose or 10 mCi; Estimated organ dose, Beta (target organ Osteogenic Cells): 3.64 mSv per 370 MBq dose or 10 mCi; Estimated organ dose, ED Cont. (target organ Osteogenic Cells): 0.07 mSv per 370 MBq dose or 10 mCi; Estimated organ dose, EDE Cont. (target organ Osteogenic Cells): 0.21 mSv per 370 MBq dose or 10 mCi; Estimated organ dose, Photon (target organ Osteogenic Cells): 3.17 mSv per 370 MBq dose or 10 mCi; Estimated organ dose, Total (target organ Osteogenic Cells): 6.82 mSv per 370 MBq dose or 10 mCi; Estimated organ dose, Alpha (target organ Ovaries): 0 mSv per 370 MBq dose or 10 mCi; Estimated organ dose, Beta (target organ Ovaries): 1.70 mSv per 370 MBq dose or 10 mCi

From patent publication US10799522B2, “Compositions and methods relating to galectin detection” (Wayne State University, priority 2015, dated 2020)
